Laboratory results published in patent US4571408A, “α,β-Dihydropolyprenyl derivatives for treating hepatitis” (Eisai Co., Ltd., priority 1980, dated 1986).

Key:
[1] = test system: liver disease (hepatitis) induced by D-galactosamine; assay: Activity against liver disease (hepatitis) induced by D-galactosamine; type: in vivo, rats (SD strain); conditions: test compound orally 400 mg./kg. each time (0, 4, 10, 24 h); D-galactosamine hydrochloride s.c. 200 mg./kg. (4, 10, 24 h); blood collection at 28 h; nine rats per group
Description: Activity against liver disease (hepatitis) induced by D-galactosamine
D-Galactosamine hydrochloride and the above-listed compound were administered (1) subcutaneously in the dosage of 200 mg./kg. each time and (2) orally in the dosage of 400 mg./kg. each time, respectively, to rats (SD strain, weight: approximately 250 g.) according to the schedule described hereinafter. After completion of the administrations, the blood was collected from the rats and there were measured the GOT value, GPT value and alkali phosphotase value, all of which are indicative of the degree of liver disease.
Each test compound was administered in the form of a suspension thereof in a 5% aqueous gum arabic solution. The D-galactosamine hydrochloride was administered in the form of an aqueous solution thereof in distilled water adjusted to pH 7 by addition of potassium hydroxide.
There were provided the test compound groups (nine rats per each group) in which the rats were administered with the test compound and with D-galactosamine hydrochloride; a control group (fourteen rats) in which the rats were administered with a plain 5% aqueous gum arabic solution free of the test compound and with D-galactosamine hydrochloride; and a normal group (eight rats) in which the rats were not administered with either the test compound or D-galactosamine hydrochloride.
4 test compound and D-galactosamine
10 test compound and D-galactosamine
24 test compound and D-galactosamine

rats (Wistar strain) = assay: Toxicity (oral administration to rats); type: in vivo; conditions: orally, 4,000 mg./kg., ten rats (Wistar strain), suspended in 5% aqueous gum arabic solution
Description: Each of the above-listed compounds, A, B, C and D was suspended in a 5% aqueous gum arabic solution and then was administered orally to ten rats (Wistar strain) in the dosage of 4,000 mg./kg.

Row | Structure (SMILES) | Alkali phosphatase value [1] [KA - u] | GOT value [1] [carmen unit] | GPT value [1] [carmen unit] | Deaths of the rats (rats (Wistar strain))
1 | CC(C)=CCC/C(C)=C/CC/C(C)=C/CCC(C)CC(=O)O (stereo not shown) [Compound A, (E, E)-3,7,11,15-tetramethyl-6,10,14-hexadecatrienoic acid] | 56.2 | 312.4 | 208.3 | No deaths of the rats were observed
2 | CCOC(=O)CC(C)CC/C=C(\C)CC/C=C(\C)CCC=C(C)C (stereo not shown) [Compound B, ethyl (E, E)-3,7,11,15-tetramethyl-6,10,14-hexadecatrienoate] | 55.8 | 307.1 | 199.7 | No deaths of the rats were observed
3 | CC(C)=CCC/C(C)=C/CC/C(C)=C/CCC(C)CCO (stereo not shown) [Compound C, (E, E)-3,7,11,15-tetramethyl-6,10,14-hexadecatrien-1-ol] | 54.2 | 337.7 | 185.6 | No deaths of the rats were observed
4 | CC(=O)OCCC(C)CC/C=C(\C)CC/C=C(\C)CCC=C(C)C (stereo not shown) [Compound D, (E, E)-3,7,11,15-tetramethyl-6,10,14-hexadecatrienyl acetate] | 53.5 | 315.3 | 178.7 | No deaths of the rats were observed
